Assays:
[1] = system: freshly extracted human skin; assay: Ex vivo evaluation test using freshly extracted human skin, elastica-van Gieson staining of collagen fibers (Example 4); conditions: CMP, 2Na 1.0, 2.0 w/v % applied from stratum corneum side, total of 72 hours
Method: To evaluate the effect on actual skin with greater precision, an ex vivo evaluation test was conducted using freshly extracted human skin.
Abdominal skin tissue was used, which was taken from a patient during cosmetic surgery, after obtaining informed consent for use in research. The extracted skin was placed in a culture plate supplemented with 1.3 ml of D-MEM/Ham's F-12 medium, and conditioned overnight at 37° C. in 5% CO2. An appropriate amount of PBS (-) containing a given concentration of each sample was applied from the stratum corneum side, and further cultured for 24 hours. The treatment was continued for a total of 72 hours while replacing the sample and medium with fresh ones every 24 hours. The concentrations of CMP, 2Na in the respective samples were 0, 1.0, and 2.0 (w/v %).
After the cultured skin tissue was fixed according to a standard method, skin tissue sections were prepared, collagen fibers were stained with elastica-van Gieson stain, and observed under a microscope.

[2] = system: Normal human fibroblasts (NHDF); assay: Type I collagen production by normal human fibroblasts treated with culture supernatant from three-dimensional cultured epidermis (Example 1, ELISA); format: cell-based; conditions: three-dimensional cultured epidermis treated with CMP, 2Na 0.125, 0.25, 1.0, 2.0 w/v % from stratum corneum side, supernatant on fibroblasts 24 hours
Method: To reproduce the phenomenon that would occur in actual epidermis, the effect of promoting collagen production for pyrimidine nucleotides was evaluated with a culture supernatant from three-dimensional cultured epidermis, and with fibroblasts.
Three-dimensional cultured epidermis (LabCyte EPI MODEL 24; manufactured by J TEC) was set in a 24-well plate to which 500 μL of the attached assay medium was added, and conditioned overnight at 37° C. 50 μL of sample-containing PBS (-) was applied from the stratum corneum side and cultured for 24 hours. After removing the sample-containing PBS (-), the plate was washed with PBS (-). The samples to be treated with UVB were irradiated with 600 mJ/cm^2 using a UVB lamp (TL20W/12RS; manufactured by PHILIPS). For both samples with and without the UVB treatment, the media were replaced with fresh media, 50 μL of sample-containing PBS (-) was newly applied from the stratum corneum side, and further cultured for 48 hours. After culturing, the culture supernatant was collected. The concentrations of CMP, 2Na in the respective samples were 0, 0.125, 0.25, 1.0 and 2.0 (w/v %), respectively. […]
The culture supernatant from normal human fibroblasts was collected and an amount of type I collagen was quantified by ELISA. The protein amount of the culture supernatant was also measured by BCA protein assay.

Collagen 1A1 (COL1A1) = assay: mRNA expression of COL1A1 in fibroblasts treated with culture supernatant from three-dimensional cultured epidermis (Example 2, real time PCR); format: cell-based, human; conditions: three-dimensional cultured epidermis treated with CMP, 2Na 1.0, 2.0 w/v %; supernatant on fibroblasts; GAPDH endogenous control
Method: Similarly, the mRNA expression levels of Collagen 1A1 (COL1A1), a factor related to type I collagen synthesis, were quantified by real-time PCR.
Three-dimensional cultured epidermis (LabCyte EPI MODEL 24; manufactured by J TEC) was set in a 24-well plate to which 500 μL of the attached assay medium was added, and conditioned overnight at 37° C. 50 μL of sample-containing PBS (-) was applied from the stratum corneum side and cultured for 24 hours. After removing the sample-containing PBS (-), the plate was washed with PBS (-). The medium was replaced with a fresh medium, 50 μL of sample-containing PBS (-) was newly applied from the stratum corneum side, and further cultured for 48 hours. After culturing, the culture supernatant was collected. The concentrations of CMP, 2Na in the respective samples were 0, 1.0, and 2.0 (w/v %), respectively.
Normal human fibroblasts were treated with the culture supernatant by the same method as that of Example 1. RNA was extracted from NHDF using RNeasy Mini Kit (QIAGEN), and mRNA expression analysis for collagen 1A1 (COL1A1) was performed by real time PCR ([…]). Glyceraldehyde 3-phosphate dehydrogenase (GAPDH) was used as an endogenous control.

[3] = system: Normal human fibroblasts (NHDF); assay: Type I collagen production by normal human fibroblasts directly treated with sample (Example 3, ELISA); format: cell-based; conditions: direct treatment of normal human fibroblasts with 1.25, 2.5, 5 mM sample, 24 hours
Method: (§1) The effects of promoting collagen production for pyrimidine nucleotides were then evaluated with the culture supernatant from normal human epidermal cells and with fibroblasts. In this evaluation, the effects were compared for the case where the fibroblasts were directly treated with pyrimidine nucleotides and the case where the fibroblasts were treated with the normal human epidermal cell culture supernatant treated with the pyrimidine nucleotides.
Normal human fibroblasts (NHDF; Kurabo) were seeded in a 96-well plate at a density of 2.55×10^4 cells/well/100 μL and cultured at 37° C. for 24 hours. The medium was then replaced with 100 μL of media (HuMedia-KG2; Kurabo) containing CMP, 2Na at 0, 1.25, 2.5, 5 (mM) (i.e., 0, 0.0459, 0.0918, 0.184 (w/v %)) and UMP, 2Na at 0, 1.25, 2.5, 5 (MM) (i.e., 0, 0.046, 0.092, 0.184 (w/v %)), and cultured for 24 hours.
(§2) The culture supernatant of normal human fibroblasts was collected and an amount of type I collagen was quantified by ELISA. The protein amount of the culture supernatant was also measured by BCA protein assay.

[4] = system: Normal human fibroblasts (NHDF); assay: Type I collagen production by normal human fibroblasts treated with normal human epidermal cell culture supernatant (K-CM, Example 3, ELISA); format: cell-based; conditions: for amount of collagen in the culture supernatant of normal human fibroblasts (type I collagen): K-CM: supernatant of normal human epidermal cells treated with 1.25, 2.5, 5 mM sample for 24 hours, fibroblasts 24 hours
Method: as §1
Normal human epidermal cells (NHEK; Kurabo) were seeded in a 96-well plate at a density of 2.5×10^4 cells/well and cultured at 37° C. for 24 hours. The medium was replaced with 100 μL of sample-containing medium (HuMedia-KG2; Kurabo) and cultured for 24 hours. After culturing, the culture supernatant was collected. The sample solutions used were 0, 1.25, 2.5, and 5 (mM) (i.e., 0, 0.0459, 0.0918, and 0.184 (w/v %)) of CMP, 2Na, and 0, 1.25, 2.5, and 5 (mM) (i.e., 0, 0.046, 0.092, and 0.184 (w/v %)) of UMP, 2Na.
Normal human fibroblasts (NHDF; Kurabo) were seeded in a 96-well plate at a density of 2.5×10^4 cells/well/100 μL and cultured at 37° C. for 24 hours. The medium was then replaced with 100 μL of the culture supernatant obtained in the culture supernatant acquisition step from the three-dimensional cultured epidermis as described above and cultured for 24 hours.
as §2

[5] = system: cultured human skin fibroblasts; conditions: uridylic acid alone, as disclosed in Patent Literature 1; cited from earlier work

In the case of `Nc1ccn([C@@H]2O[C@H](COP(=O)(O)O)[C@@H](O)[C@H]2O)c(=O)n1` [CMP, 2Na, disodium cytidylate], the “collagen fibers in dermis (elastica-van Gieson stain)” value [1] is reported as “tended to result in denser collagen fibers”, the “amount of collagen in the culture supernatant from normal human fibroblasts (type I collagen)” value ([2]; UVB 600 mJ/cm^2) is reported as “increased” and the “amount of collagen in the culture supernatant from normal human fibroblasts (type I collagen)” value ([2]; UVB (-)) is reported as “increased”. The “expression level of COL1A1 (mRNA, relative to 0 w/v %)” value (Collagen 1A1 (COL1A1)) was “increased”, the “amount of collagen (type I collagen)” value [3] was “no increase” and the “effect of promoting collagen production, cytidylic acid compared with uridylic acid” value ([4]; Example 3) was “higher effect of promoting collagen production”. The “amount of collagen in the culture supernatant of normal human fibroblasts (type I collagen)” value [4] was “increased”.
For `O=c1ccn([C@@H]2O[C@H](COP(=O)(O)O)[C@@H](O)[C@H]2O)c(=O)[nH]1` [UMP, 2Na, disodium uridylate], the “effect of promoting collagen production” value [5] is listed as “no effect of promoting collagen production”, the “amount of collagen (type I collagen)” value [3] is listed as “no increase” and the “amount of collagen in the culture supernatant of normal human fibroblasts (type I collagen)” value [4] is listed as “increased”.

— patent US20250302719A1, “COLLAGEN PRODUCTION PROMOTER, COSMETIC COMPOSITION OR EXTERNAL PREPARATION FOR SKIN, AND PREPARATION FOR ORAL ADMINISTRATION” (YAMASA CORPORATION, priority 2022, published 2025)
